Source: the kinase profiling compilation of Christmann-Franck et al. (2016)

Key:
Experiment in all cases: Caliper, Mobility shift assay off-chip
[1] = system: ABL1 (human), P00519 [T315I]; settings: compound 0.1 µM
[2] = biological target: ABL2 (human) (UniProt P42684); settings: compound 0.1 µM
[3] = biological target: AKT3 (human) (UniProt Q9Y243); settings: compound 0.1 µM
[4] = biological target: BRSK1 (human) (UniProt Q8TDC3)
[5] = biological target: BRSK2 (human) (UniProt Q8IWQ3)
[6] = biological target: CHEK1 (human) (UniProt O14757)
Sequence of CHEK1 (human) (O14757 whole entry, looked up): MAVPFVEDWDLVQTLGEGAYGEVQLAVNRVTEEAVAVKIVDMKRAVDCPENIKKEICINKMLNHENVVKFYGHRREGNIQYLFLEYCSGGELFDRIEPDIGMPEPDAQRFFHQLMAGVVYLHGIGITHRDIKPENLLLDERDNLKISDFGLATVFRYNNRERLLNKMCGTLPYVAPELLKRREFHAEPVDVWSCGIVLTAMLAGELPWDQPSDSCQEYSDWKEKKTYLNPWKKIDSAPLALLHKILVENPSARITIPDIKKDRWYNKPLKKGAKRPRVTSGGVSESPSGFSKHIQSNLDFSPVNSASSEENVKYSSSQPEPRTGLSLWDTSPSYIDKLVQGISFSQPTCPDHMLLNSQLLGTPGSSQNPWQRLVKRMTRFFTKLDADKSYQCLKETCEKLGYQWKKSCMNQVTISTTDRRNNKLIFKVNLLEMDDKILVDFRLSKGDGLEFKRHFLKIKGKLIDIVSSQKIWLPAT

[7] = biological target: DCLK2 (human) (UniProt Q8N568)
[8] = system: FGFR2 (human), P21802 [N549H]; settings: compound 0.1 µM
[9] = biological target: FGFR3 (human) (UniProt P22607); settings: compound 0.1 µM
[10] = biological target: GSK3B (human) (UniProt P49841); settings: compound 1.0 µM
[11] = biological target: HCK (human) (UniProt P08631); settings: compound 0.1 µM
[12] = biological target: IGF1R (human) (UniProt P08069)
Sequence of IGF1R (human) (P08069 whole entry, looked up): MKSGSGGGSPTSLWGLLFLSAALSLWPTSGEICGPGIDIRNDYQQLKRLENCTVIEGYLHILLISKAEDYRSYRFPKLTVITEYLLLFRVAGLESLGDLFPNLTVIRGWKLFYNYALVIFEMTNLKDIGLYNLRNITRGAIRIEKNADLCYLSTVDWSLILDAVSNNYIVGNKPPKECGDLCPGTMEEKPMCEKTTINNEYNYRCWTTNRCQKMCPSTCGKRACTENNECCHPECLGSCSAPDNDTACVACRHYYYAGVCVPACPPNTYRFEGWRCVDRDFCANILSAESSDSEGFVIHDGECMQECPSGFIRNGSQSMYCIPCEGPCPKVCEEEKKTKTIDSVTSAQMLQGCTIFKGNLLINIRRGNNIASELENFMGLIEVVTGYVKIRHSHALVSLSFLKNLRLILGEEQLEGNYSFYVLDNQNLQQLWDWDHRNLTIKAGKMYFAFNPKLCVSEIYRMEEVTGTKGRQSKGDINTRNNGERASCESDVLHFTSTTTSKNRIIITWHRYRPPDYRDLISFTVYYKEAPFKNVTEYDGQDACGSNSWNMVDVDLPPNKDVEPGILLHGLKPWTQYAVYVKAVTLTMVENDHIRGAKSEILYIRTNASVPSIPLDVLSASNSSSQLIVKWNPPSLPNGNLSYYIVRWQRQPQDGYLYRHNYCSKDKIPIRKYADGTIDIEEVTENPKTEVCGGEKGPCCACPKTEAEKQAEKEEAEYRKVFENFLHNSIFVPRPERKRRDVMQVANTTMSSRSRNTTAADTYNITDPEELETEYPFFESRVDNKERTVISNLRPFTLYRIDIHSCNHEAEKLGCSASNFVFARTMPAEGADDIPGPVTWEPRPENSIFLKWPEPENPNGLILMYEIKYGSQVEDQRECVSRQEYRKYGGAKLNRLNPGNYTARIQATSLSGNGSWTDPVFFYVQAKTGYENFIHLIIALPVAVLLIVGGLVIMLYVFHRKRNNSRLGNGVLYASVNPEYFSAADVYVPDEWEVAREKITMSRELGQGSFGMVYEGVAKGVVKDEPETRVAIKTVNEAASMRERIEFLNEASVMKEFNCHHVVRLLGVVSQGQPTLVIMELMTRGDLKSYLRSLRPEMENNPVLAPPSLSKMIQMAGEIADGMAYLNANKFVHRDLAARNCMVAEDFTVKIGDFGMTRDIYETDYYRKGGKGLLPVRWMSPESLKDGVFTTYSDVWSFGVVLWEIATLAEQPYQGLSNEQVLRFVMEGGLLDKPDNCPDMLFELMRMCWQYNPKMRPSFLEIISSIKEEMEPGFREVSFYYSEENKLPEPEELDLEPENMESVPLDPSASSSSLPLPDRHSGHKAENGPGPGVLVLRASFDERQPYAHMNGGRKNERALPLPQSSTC

[13] = biological target: IKBKB (human) (UniProt O14920); settings: compound 0.1 µM
[14] = biological target: INSR (human) (UniProt P06213)
[15] = biological target: KDR (human) (UniProt P35968)
[16] = biological target: MAPK12 (human) (UniProt P53778)
[17] = biological target: MAPK14 (human) (UniProt Q16539)
[18] = biological target: MAPK3 (human) (UniProt P27361)
[19] = biological target: MAPKAPK3 (human) (UniProt Q16644); settings: compound 0.1 µM
[20] = biological target: MAPKAPK5 (human) (UniProt Q8IW41)
[21] = biological target: MARK2 (human) (UniProt Q7KZI7)
[22] = biological target: MARK3 (human) (UniProt P27448)
[23] = biological target: PIM1 (human) (UniProt P11309)
Sequence of PIM1 (human) (P11309 whole entry, looked up): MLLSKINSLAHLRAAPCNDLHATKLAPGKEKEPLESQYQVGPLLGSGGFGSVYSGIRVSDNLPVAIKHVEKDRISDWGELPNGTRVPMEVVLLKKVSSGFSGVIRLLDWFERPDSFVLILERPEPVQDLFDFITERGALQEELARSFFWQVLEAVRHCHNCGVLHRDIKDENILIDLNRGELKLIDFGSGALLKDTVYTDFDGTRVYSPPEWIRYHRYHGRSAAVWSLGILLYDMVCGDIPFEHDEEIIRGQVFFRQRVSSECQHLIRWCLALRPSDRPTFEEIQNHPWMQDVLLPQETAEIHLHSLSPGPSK

[24] = biological target: PIM2 (human) (UniProt Q9P1W9)
[25] = biological target: PRKACA (human) (UniProt P17612)
[26] = biological target: PRKCA (human) (UniProt P17252)
[27] = biological target: PRKCB1 (human) (UniProt P05771)
[28] = biological target: PRKCZ (human) (UniProt Q05513)
[29] = biological target: PRKD2 (human) (UniProt Q9BZL6)
Sequence of PRKD2 (human) (Q9BZL6 whole entry, looked up): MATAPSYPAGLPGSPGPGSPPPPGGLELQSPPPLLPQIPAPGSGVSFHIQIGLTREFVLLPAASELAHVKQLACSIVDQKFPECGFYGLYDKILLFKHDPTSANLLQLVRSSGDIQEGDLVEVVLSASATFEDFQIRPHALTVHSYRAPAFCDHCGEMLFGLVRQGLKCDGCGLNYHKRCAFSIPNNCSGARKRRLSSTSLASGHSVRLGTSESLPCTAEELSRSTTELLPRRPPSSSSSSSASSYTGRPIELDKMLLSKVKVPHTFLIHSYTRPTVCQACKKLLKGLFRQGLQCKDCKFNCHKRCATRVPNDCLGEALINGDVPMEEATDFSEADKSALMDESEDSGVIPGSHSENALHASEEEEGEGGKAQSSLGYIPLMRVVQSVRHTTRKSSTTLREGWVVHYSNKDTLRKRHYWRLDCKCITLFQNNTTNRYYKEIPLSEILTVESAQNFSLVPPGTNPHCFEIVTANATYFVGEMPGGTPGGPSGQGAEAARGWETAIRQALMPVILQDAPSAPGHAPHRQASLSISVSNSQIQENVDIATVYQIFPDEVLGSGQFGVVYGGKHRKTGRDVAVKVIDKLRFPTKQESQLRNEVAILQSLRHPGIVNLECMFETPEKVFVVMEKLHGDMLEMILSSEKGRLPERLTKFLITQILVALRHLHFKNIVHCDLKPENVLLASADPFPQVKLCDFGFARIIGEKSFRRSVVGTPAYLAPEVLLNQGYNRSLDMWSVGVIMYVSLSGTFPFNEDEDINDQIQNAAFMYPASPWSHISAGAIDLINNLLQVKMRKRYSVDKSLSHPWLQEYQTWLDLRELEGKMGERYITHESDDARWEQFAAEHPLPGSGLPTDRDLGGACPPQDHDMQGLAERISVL

[30] = biological target: RPS6KA4 KD1 KD2 (human) (UniProt O75676)
Sequence of RPS6KA4 KD1 KD2 (human) (O75676 whole entry, looked up): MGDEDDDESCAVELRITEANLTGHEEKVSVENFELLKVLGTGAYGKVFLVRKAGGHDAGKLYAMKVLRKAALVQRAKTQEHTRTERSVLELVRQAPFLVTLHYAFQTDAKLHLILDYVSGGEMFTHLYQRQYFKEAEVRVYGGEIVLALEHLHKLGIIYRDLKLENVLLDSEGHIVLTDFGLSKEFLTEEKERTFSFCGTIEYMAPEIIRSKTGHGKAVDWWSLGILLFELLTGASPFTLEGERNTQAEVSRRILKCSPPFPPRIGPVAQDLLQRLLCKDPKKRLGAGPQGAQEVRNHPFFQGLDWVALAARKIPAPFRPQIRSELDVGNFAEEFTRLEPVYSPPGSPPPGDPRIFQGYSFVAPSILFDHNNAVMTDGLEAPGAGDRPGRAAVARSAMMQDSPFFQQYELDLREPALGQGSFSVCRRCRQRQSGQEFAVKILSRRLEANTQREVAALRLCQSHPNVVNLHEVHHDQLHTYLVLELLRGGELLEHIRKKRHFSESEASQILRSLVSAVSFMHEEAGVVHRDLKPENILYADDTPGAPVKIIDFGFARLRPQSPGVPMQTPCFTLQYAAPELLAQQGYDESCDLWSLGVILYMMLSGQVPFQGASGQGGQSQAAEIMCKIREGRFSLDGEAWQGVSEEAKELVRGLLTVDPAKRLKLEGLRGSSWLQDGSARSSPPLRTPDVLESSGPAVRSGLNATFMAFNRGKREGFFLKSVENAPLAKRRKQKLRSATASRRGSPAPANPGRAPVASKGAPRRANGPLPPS

[31] = biological target: RPS6KB1 (human) (UniProt P23443)
Sequence of RPS6KB1 (human) (P23443 whole entry, looked up): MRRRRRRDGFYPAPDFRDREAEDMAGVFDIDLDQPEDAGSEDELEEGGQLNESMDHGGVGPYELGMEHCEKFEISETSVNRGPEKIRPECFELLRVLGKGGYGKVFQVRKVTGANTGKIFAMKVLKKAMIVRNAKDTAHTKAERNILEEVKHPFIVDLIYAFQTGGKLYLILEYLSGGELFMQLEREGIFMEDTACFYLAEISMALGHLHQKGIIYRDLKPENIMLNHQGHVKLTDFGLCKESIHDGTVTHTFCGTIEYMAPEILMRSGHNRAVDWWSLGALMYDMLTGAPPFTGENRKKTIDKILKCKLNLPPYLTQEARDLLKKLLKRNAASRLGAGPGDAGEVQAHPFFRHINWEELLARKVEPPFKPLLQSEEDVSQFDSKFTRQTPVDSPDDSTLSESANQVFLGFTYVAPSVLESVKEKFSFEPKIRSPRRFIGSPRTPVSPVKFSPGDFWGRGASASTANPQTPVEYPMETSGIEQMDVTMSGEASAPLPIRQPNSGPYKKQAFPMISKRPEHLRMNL

[32] = biological target: SGK1 (human) (UniProt O00141)
[33] = biological target: SGK3 (human) (UniProt Q96BR1)
[34] = biological target: SRC (human) (UniProt P12931)

Sequence of BRSK2 (human) (Q8IWQ3 whole entry, looked up): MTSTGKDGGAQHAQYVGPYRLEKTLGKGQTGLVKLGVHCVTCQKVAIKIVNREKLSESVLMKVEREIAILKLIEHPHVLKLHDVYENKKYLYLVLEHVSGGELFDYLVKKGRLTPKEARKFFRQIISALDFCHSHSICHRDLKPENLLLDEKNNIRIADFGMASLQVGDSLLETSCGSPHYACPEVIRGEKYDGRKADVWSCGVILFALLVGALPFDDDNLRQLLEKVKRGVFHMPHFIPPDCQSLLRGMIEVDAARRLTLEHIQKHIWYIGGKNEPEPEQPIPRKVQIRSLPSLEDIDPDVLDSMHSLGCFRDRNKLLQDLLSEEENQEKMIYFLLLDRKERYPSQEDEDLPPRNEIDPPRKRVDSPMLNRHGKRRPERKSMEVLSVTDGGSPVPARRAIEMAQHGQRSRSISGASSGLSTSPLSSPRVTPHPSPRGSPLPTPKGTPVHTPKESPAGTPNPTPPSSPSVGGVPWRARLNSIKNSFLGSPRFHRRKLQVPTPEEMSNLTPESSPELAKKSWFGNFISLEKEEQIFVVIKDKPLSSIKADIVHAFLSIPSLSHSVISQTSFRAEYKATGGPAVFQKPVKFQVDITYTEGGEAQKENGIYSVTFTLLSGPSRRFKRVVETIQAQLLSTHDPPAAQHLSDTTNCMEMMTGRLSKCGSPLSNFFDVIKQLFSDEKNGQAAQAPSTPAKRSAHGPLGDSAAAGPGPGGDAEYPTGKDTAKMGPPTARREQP

For `Cn1cc(-c2cnc3ccc4ccc(CS(=O)(=O)NCC5CCCCN5)cc4c(=O)c3c2)cn1` (centres undefined), the inhibition [1] was 3.3%, the inhibition [2] was 3.3% and the inhibition [3] was 2%. It also gave an inhibition ([4]; compound 0.1 µM) of 2%, an inhibition ([4]; compound 1.0 µM) of 5.2% and an inhibition ([5]; compound 0.1 µM) of -1.3%. It also gave an inhibition ([5]; compound 1.0 µM) of -9.5%, an inhibition ([6]; compound 0.1 µM) of 1.1% and an inhibition ([6]; compound 1.0 µM) of 0.4%. The inhibition ([7]; compound 0.1 µM) was -6%, the inhibition ([7]; compound 1.0 µM) was -0.3% and the inhibition [8] was -2.9%. It also gave an inhibition [9] of -12.6%, an inhibition [10] of 2% and an inhibition [11] of -2.1%. For the same compound, the inhibition ([12]; compound 0.1 µM) was 4.9%, the inhibition ([12]; compound 1.0 µM) was -8.3% and the inhibition [13] was 1.9%. For the same compound, the inhibition ([14]; compound 0.1 µM) was -128%, the inhibition ([14]; compound 1.0 µM) was -2% and the inhibition ([15]; compound 0.1 µM) was -5.2%. It also gave an inhibition ([15]; compound 1.0 µM) of 41.8%, an inhibition ([16]; compound 0.1 µM) of -3.3% and an inhibition ([16]; compound 1.0 µM) of -11.8%. It also gave an inhibition ([17]; compound 0.1 µM) of 3.3%, an inhibition ([17]; compound 1.0 µM) of -2.7% and an inhibition ([18]; compound 0.1 µM) of 7.2%. It also gave an inhibition ([18]; compound 1.0 µM) of 2.8%, an inhibition [19] of -2.7% and an inhibition ([20]; compound 0.1 µM) of -4.3%. The inhibition ([20]; compound 1.0 µM) was -1.1%, the inhibition ([21]; compound 0.1 µM) was -12.6% and the inhibition ([21]; compound 1.0 µM) was 2.4%. The inhibition ([22]; compound 0.1 µM) was 2%, the inhibition ([22]; compound 1.0 µM) was -4.3% and the inhibition ([23]; compound 0.1 µM) was -4.7%. For the same compound, the inhibition ([23]; compound 1.0 µM) was -8.3%, the inhibition ([24]; compound 0.1 µM) was 25.2% and the inhibition ([24]; compound 1.0 µM) was 16.7%. For the same compound, the inhibition ([25]; compound 0.1 µM) was -1.4%, the inhibition ([25]; compound 1.0 µM) was 0.3% and the inhibition ([26]; compound 0.1 µM) was -28%. It also gave an inhibition ([26]; compound 1.0 µM) of -0.1%, an inhibition ([27]; compound 0.1 µM) of -20.8% and an inhibition ([27]; compound 1.0 µM) of -18.2%. For the same compound, the inhibition ([28]; compound 0.1 µM) was -8%, the inhibition ([28]; compound 1.0 µM) was 1.3% and the inhibition ([29]; compound 0.1 µM) was -3.8%. For the same compound, the inhibition ([29]; compound 1.0 µM) was 15%, the inhibition ([30]; compound 0.1 µM) was 0.2% and the inhibition ([30]; compound 1.0 µM) was -17.3%. For the same compound, the inhibition ([31]; compound 0.1 µM) was -2.7%, the inhibition ([31]; compound 1.0 µM) was 0% and the inhibition ([32]; compound 0.1 µM) was 7.2%. It also gave an inhibition ([32]; compound 1.0 µM) of 9.6%, an inhibition ([33]; compound 0.1 µM) of 0.3% and an inhibition ([33]; compound 1.0 µM) of -0.7%. It also gave an inhibition ([34]; compound 0.1 µM) of 3.2% and an inhibition ([34]; compound 1.0 µM) of 2.1%.
